System: Primary hepatocytes
Experiment: in vitro exposure of primary hepatocytes to volatile HCFCs, enzyme leakage (LDH and AST)
Format: cell-based
Conditions: 10,000, 100,000 and 500,000 ppm, 24 hours
Excerpt: Any adherent cell line or adherent primary cell type can be used in this system. Adherent cell lines may attach to glass walls, i.e., the inner surface of a glass body 10. When cells reach confluency, exposure can bc initiated. […] This can be accomplished by attaching primary cells to a sterile strip of inert mesh 38, e.g., nylon mesh, precoated with an attachment factor such as collagen. The mesh is carefully rolled and placed into body 10 through one of the openings 14 or 16. After the mesh is unrolled within body 10, the openings 14 and 1.6 are sealed using the septa or the valve 22 previously described.
The cells to be tested are washed and isolated using known procedures. The washed isolated cells are resuspended at a suitable cell density, e.g., about 10^6 to 10^7 /ml, in a suitable culture medium, e.g., Williams E or Leibovitz's-15. The culture medium may be supplemented with a suitable media supplement, e.g., fetal calf serum, dexamethasone, etc. The suspended cells are distributed over the mesh or over the inner surface of device 10. The cells are allowed to attach for a suitable period. If the mesh is used, it is rolled into a narrow tube, inserted into device 10 and allowed to unroll. Culture medium is added to the device 10 to a desired quantity. Scaling means 18 and 20 are inserted into openings 14 and 16. […]
A syringe needle is inserted through one of the sealing means 18 or 20 to provide egress for excess atmosphere within device 10. […] A sample of the atmosphere within device 10 is taken from each device prepared for testing and analyzed by gas-chromatography (GC) to determine the actual concentration of the volatile compound in the device.
The thus-prepared test device is placed on a roller apparatus in an incubator at a suitable temperature. […] At the termination exposure, a second sample of the atmosphere should be taken and analyzed by GC to ensure that the volatile compound is present at a concentration of at least about 95% of that measured initially. […]

## CC(F)(F)Cl [HCFC-142b, 1-chloro-1,1-difluoroethane]
  relative rank ordering of toxicity, based on lactate dehydrogenase (LDH) and S-amino-transferase (AST) enzyme leakages: HCFC-123>HCFC-123/142b>HCFC-124>HCFC-142b

## FC(F)(F)C(Cl)Cl [HCFC-123, 2,2-dichloro-1,1,1-trifluoroethane]
  relative rank ordering of toxicity, based on lactate dehydrogenase (LDH) and S-amino-transferase (AST) enzyme leakages: HCFC-123>HCFC-123/142b>HCFC-124>HCFC-142b

## FC(Cl)C(F)(F)F (stereo not drawn) [HCFC-124, 1-chloro-1,2,2,2-trifiuoroethane]
  relative rank ordering of toxicity, based on lactate dehydrogenase (LDH) and S-amino-transferase (AST) enzyme leakages: HCFC-123>HCFC-123/142b>HCFC-124>HCFC-142b
